# Results from patent US12264158B2, “Protein kinase MKK4 inhibitors for promoting liver regeneration or reducing or preventing hepatocyte death” (HEPAREGENIX GMBH, priority 2018, dated 2025).
# Experiments:
# Conditions in all cases: concentration of 100 nM
# [1] = target: T1, MKK7 (Homo sapiens, UniProt O14733); assay: KINOMEscan competition binding assay, selectivity against off-target MKK7
# T1 construct: M1/R419; host or cells: HEK-293
# T1 sequence (O14733 1-419): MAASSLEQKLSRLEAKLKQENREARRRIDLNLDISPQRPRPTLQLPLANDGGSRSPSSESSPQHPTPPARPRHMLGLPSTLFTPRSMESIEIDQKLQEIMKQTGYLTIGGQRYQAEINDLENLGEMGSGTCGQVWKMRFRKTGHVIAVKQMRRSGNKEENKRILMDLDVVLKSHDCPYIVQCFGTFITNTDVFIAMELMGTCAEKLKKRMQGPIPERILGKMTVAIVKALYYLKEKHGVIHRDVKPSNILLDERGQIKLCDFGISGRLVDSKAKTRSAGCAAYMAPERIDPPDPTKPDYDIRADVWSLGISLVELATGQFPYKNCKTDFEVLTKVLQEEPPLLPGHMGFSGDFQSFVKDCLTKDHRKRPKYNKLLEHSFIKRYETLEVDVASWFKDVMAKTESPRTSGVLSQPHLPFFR
# Experimental: (§1) The assay was performed by combining three components: DNA-tagged kinase; immobilized ligand; and a test compound. The ability of the test compound to compete with the immobilized ligand was measured via quantitative PCR of the DNA tag. The technology is described in detail in Fabian, M. A. et al. A small molecule-kinase interaction map for clinical kinase inhibitors. Nat. […] M. W. et al. A quantitative analysis of kinase inhibitor selectivity, Nat.
# (§2) For investigation of the affinity to MKK4, MKK7 and JNK1, the kinases were produced in HEK-293 cells and subsequently tagged with DNA for qPCR detection. […] The liganded beads were blocked with excess biotin and washed with blocking buffer (SEABLOCK™ (Pierce), 1% BSA, 0.05% TWEEN®20, 1 mM DTT) to remove unbound ligand and to reduce nonspecific binding. […] All reactions were performed in polystyrene 96-well plates in a final volume of 0.135 mL. […] The kinase concentration in the eluates was measured by qPCR.
# (§3) The test compounds were provided as 10 mM stock solutions. The test solutions at indicated final concentrations were prepared at DiscoverX.
# [2] = target: T2, JNK1 (Homo sapiens, UniProt P45983); assay: KINOMEscan competition binding assay, selectivity against off-target JNK1
# T2 construct: M1/Q384; host or cells: HEK-293
# Experimental: as §1, §2, §3
# [3] = target: BRaf (Homo sapiens, UniProt P15056); assay: KINOMEscan competition binding assay, selectivity against off-target BRaf
# Experimental: as §1, §3
# [4] = target: T3, MKK4 (Homo sapiens, UniProt P45985); assay: KINOMEscan competition binding assay, MKK4 potency
# T3 construct: S84/D399; host or cells: HEK-293
# T3 sequence (P45985 84-399): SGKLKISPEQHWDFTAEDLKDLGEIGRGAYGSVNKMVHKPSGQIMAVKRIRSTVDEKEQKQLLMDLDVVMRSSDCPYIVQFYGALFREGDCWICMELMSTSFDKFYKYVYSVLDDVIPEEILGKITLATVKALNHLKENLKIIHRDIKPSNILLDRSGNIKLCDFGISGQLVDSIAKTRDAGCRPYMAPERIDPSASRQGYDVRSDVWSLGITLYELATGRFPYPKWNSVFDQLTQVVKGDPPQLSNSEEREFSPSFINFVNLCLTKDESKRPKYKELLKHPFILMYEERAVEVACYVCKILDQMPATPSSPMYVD
# Experimental: as §1, §2, §3
# Chain of BRaf (P15056 whole entry): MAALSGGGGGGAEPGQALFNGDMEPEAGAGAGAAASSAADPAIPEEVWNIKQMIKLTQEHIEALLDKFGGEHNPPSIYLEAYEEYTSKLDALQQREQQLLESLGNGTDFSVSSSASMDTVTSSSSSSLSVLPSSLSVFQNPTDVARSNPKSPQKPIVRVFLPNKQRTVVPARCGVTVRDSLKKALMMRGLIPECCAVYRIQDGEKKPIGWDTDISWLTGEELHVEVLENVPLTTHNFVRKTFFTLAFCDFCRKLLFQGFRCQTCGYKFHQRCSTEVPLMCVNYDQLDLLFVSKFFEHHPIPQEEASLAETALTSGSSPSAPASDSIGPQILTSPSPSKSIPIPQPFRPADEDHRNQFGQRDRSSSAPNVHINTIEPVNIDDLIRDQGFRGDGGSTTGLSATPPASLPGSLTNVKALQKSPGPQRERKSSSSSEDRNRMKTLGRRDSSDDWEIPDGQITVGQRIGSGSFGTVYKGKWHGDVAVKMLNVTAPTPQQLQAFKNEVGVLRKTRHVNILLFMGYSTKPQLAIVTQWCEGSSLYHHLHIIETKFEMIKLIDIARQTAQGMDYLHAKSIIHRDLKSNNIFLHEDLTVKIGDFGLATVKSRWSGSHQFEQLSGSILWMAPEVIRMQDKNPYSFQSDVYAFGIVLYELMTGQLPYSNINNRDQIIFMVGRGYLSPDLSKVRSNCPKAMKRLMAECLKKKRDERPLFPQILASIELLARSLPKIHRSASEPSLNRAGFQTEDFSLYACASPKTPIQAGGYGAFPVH
# T2 sequence (P45983 1-384 isoform P45983-2): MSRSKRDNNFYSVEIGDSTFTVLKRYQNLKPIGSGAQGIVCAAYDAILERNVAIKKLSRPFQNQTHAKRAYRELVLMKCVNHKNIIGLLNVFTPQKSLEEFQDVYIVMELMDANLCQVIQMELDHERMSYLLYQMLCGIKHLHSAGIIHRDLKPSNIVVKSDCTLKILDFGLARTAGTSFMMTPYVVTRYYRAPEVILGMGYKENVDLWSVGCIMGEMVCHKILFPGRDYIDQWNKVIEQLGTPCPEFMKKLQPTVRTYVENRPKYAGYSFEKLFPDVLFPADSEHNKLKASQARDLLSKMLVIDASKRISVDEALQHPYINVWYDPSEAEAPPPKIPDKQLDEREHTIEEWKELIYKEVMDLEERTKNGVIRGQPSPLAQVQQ
Compound,"Selectivity vs. MKK7, ratio PoC(MKK7)/PoC(MKK4) [1]","Selectivity vs. JNK1, ratio PoC(JNK1)/PoC(MKK4) [2]","Selectivity vs. BRaf, ratio PoC(BRaf)/PoC(MKK4) [3]","MKK4, residual percent of control binding (PoC) [4]"
"CCCS(=O)(=O)Nc1ccc(F)c(C(=O)c2n[nH]c3ncc(-c4ccc(Cl)cc4Cl)cc23)c1F [Example 35, N-(3-(5-(2,4-dichlorophenyl)-1H-pyrazolo[3,4-b]pyridine-3-carbonyl)-2,4-difluoro-phenyl)propane-1-sulfonamide]",+ (10 > PoC(MKK7)/PoC(MKK4) ≥ 3),+ (10 > PoC(JNK1)/PoC(MKK4) ≥ 3),+ (10 > PoC(BRaf)/PoC(MKK4) ≥ 3),+ (10 ≤ PoC < 30)
"CCCS(=O)(=O)Nc1ccc(F)c([S+]([O-])c2n[nH]c3ncc(-c4ccc(Cl)cc4)cc23)c1F (stereo not shown) [Example 47, N-(3-((5-(4-chlorophenyl)-1H-pyrazolo[3,4-b]pyridin-3-yl)sulfinyl)-2,4-difluorophenyl)propane-1-sulfonamide]",O (PoC(MKK7)/PoC(MKK4) < 3),O (PoC(JNK1)/PoC(MKK4) < 3),O (PoC(BRaf)/PoC(MKK4) < 3),O (PoC ≥ 30)
"CCCS(=O)(=O)Nc1ccc(F)c(NC(=O)c2n[nH]c3ncc(-c4ccc(Cl)cc4)cc23)c1F [Example 45, 5-(4-chlorophenyl)-N-(2,6-difluoro-3-(propylsulfonamido)phenyl)-1H-pyrazolo[3,4-b]pyridine-3-carboxamide]",O (PoC(MKK7)/PoC(MKK4) < 3),O (PoC(JNK1)/PoC(MKK4) < 3),O (PoC(BRaf)/PoC(MKK4) < 3),O (PoC ≥ 30)
"CCCS(=O)(=O)Nc1ccc(F)c(C(=O)c2n[nH]c3ncc(-c4ccc(C)c(C)c4)cc23)c1F [Example 12, N-(3-(5-(3,4-dimethyl-phenyl)-1H-pyrazolo[3,4-b]pyridine-3-carbonyl)-2,4-difluorophenyl)-propane-1-sulfonamide]",+ (10 > PoC(MKK7)/PoC(MKK4) ≥ 3),+ (10 > PoC(JNK1)/PoC(MKK4) ≥ 3),O (PoC(BRaf)/PoC(MKK4) < 3),+ (10 ≤ PoC < 30)
"CCCS(=O)(=O)Nc1ccc(F)c(Cc2n[nH]c3ncc(-c4ccc(Cl)cc4)cc23)c1F [Example 50, N-(3-((5-(4-chlorophenyl)-1H-pyrazolo[3,4-b]pyridin-3-yl)methyl)-2,4-difluorophenyl)propane-1-sulfonamide]",O (PoC(MKK7)/PoC(MKK4) < 3),O (PoC(JNK1)/PoC(MKK4) < 3),O (PoC(BRaf)/PoC(MKK4) < 3),O (PoC ≥ 30)
"CCCS(=O)(=O)Nc1ccc(F)c(C(=O)c2n[nH]c3ncc(-c4ccc(C(C)C)cc4)cc23)c1F [Example 11, N-(2,4-difluoro-3-(5-(4-isopropylphenyl)-1H-pyrazo-lo[3,4-b]pyridine-3-carbonyl)phenyl)propane-1-sulfon-amide]",+ (10 > PoC(MKK7)/PoC(MKK4) ≥ 3),+ (10 > PoC(JNK1)/PoC(MKK4) ≥ 3),+ (10 > PoC(BRaf)/PoC(MKK4) ≥ 3),+ (10 ≤ PoC < 30)
"CCCS(=O)(=O)Nc1ccc(F)c(C(=O)c2n[nH]c3ncc(-c4ccc(OC)cc4)cc23)c1F [Example 6, N-(2,4-difluoro-3-(5-(4-methoxyphenyl)-1H-pyrazo-lo[3,4-b]pyridine-3-carbonyl)-phenyl)propane-1-sulfon-amide]",++ (30 > PoC(MKK7)/PoC(MKK4) ≥ 10),++ (30 > PoC(JNK1)/PoC(MKK4) ≥ 10),O (PoC(BRaf)/PoC(MKK4) < 3),++ (1 ≤ PoC < 10)
